{"source": "patent US7877241B2", "about": "“System and method for identifying behavioral signatures” (University of Maryland, Baltimore, priority 2005, dated 2011)", "key": {"C57BL/6J mice": {"tested_on": "C57BL/6J mice", "conditions": "cited from earlier work"}, "DBA/2J mice": {"tested_on": "DBA/2J mice", "conditions": "cited from earlier work"}, "[1]": {"tested_on": "behavioral effects of cocaine", "conditions": "in vivo; cited from earlier work"}, "C57BL/6J males": {"tested_on": "C57BL/6J males", "experiment": "SEE open-field test with pattern screening of mice injected with anxiolytic and anxiogenic drugs", "format": "in vivo, mouse", "conditions": "vs vehicle, diazepam 1 or 2 mg/kg, FG-7142 10 mg/kg, PTZ 20 mg/kg, i.p., training set only", "experimental": "Behavioral data for the exemplary embodiments was gathered using the SEE open-field test described above. A mouse was introduced to a 2.5 meter circular pen and allowed to freely explore the pen for 30 minutes while the mouse's location was video-tracked and digitized at a rate of 25-30 Hz with a spatial resolution of approximately 1 cm. The tracked coordinates are stored on a storage device and imported into the SEE software. Using SEE software procedures the path is further smoothed and segmented into stops and progression segments. The data file of each animal thus included 45,000-54,000 data pints of its coordinates in the arena. Because small, local movements during stopping cannot be properly captured using available tracking technology, the analysis was limited to progression segments. Depending on the activity of the test subject, progression segments generally contain […] (100-1000 s) per animal. […]\nFIG. 3 is a flow chart for a method of isolating candidate behavioral patterns according to an embodiment of the present invention. In step 302, the data points are quantified for a feature vector. In the embodiment of the present invention being described, each data point observed during the animal progression is quantified using seven “features” (variables) (t, d, v, a, j, h, c). […]\nIn step 306, the difference in relative frequencies are analyzed. […]"}, "[2]": {"conditions": "database having only C57BL/6J mice"}}, "note": "Read-outs that look alike come from different tables or passages of the source."}
{"smiles": "CC(N)Cc1ccccc1", "note": "(centres unmarked) [amphetamine]", "values": [{"measurement": "increase in distance traveled", "setting": "C57BL/6J mice; C57BL/6J strain (both strains)", "result": 3, "unit": "fold"}, {"measurement": "path curvature", "setting": "C57BL/6J mice; C57BL/6 mice, genotype comparison DBA/2J vs. C57BL/6J", "result": "decreased"}, {"measurement": "path curvature", "setting": "DBA/2J mice; BDA/2J mice (so in the source), genotype comparison DBA/2J vs. C57BL/6J", "result": "no effect"}, {"measurement": "increase in distance traveled", "setting": "DBA/2J mice; DBA/2J strain (both strains)", "result": 3, "unit": "fold"}]}
{"smiles": "O=C(NCCCCN1CCN(c2cccc(Cl)c2Cl)CC1)c1ccc2c(c1)Cc1ccccc1-2", "note": "[NGB2904]", "values": [{"measurement": "antagonizing the behavioral effects of cocaine", "setting": "[1]", "result": "effective in antagonizing the behavioral effects of cocaine"}]}
{"smiles": "CN1C(=O)CN=C(c2ccccc2)c2cc(Cl)ccc21", "note": "[diazepam]", "values": [{"measurement": "relative frequency of performing first pattern (3,*,*,4,1,*,3)", "setting": "C57BL/6J males; FIG. 6A", "result": "significantly reduced"}, {"measurement": "relative frequency of performing second pattern (3,1,4,*,3,5,*)", "setting": "C57BL/6J males; FIG. 6B", "result": "dose-dependent effect"}, {"measurement": "path curvature", "setting": "C57BL/6J mice; [2]", "result": "dose-dependently decreased"}]}
{"smiles": "CNC(=O)c1cc2c(cn1)[nH]c1ccccc12", "note": "[FG 7142, b-Carboline-3-carboxylic acid N-methylamide]", "values": [{"measurement": "path curvature", "setting": "C57BL/6J mice; [2]", "result": "increased"}]}
{"smiles": "CCCCN1[C@@H]2CC[C@H]1CC(OC(c1ccc(F)cc1)c1ccc(F)cc1)C2", "note": "(some centres unmarked) [JHW007]", "values": [{"measurement": "antagonizing the behavioral effects of cocaine", "setting": "[1]", "result": "effective in antagonizing the behavioral effects of cocaine"}]}
{"smiles": "C1CCc2nnnn2CC1", "note": "[pentylenetetrazole]", "values": [{"measurement": "path curvature", "setting": "C57BL/6J mice; [2]", "result": "increased"}]}
